Common to all, as to type: biochemical
Assay [1] has as its target T1, Human PI3K beta (Homo sapiens, UniProt P42338).
T1 construct: His (N); host or cells: SF9 insect cells (baculovirus)
The assay is described as follows: Human PI3K beta enzyme assay (HTRF). Particulars: concentration not given, b1387 states 1.1 μM for PI3K α and β; for inhibition at 1.1 µM: read-out: p110 beta Percent Inhibition. The procedure, abridged:
(§1)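 Compounds were mixed with 25 uM ATP, then with 3.5 uM di-C8 PI(4,5)P2 and His-tagged PI3K isoform (β 5.25 nM, δ 0.75 nM, γ 5 nM) at pH 7.00. After 30 min at room temperature, EDTA stopped the reaction and PIP3 was measured by HTRF over 1 h.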
A general note: Time-resolved FRET reads energy transfer from a long-lived donor to a nearby acceptor.

For assay [2], the target named is T2, Human PI3K alpha (Homo sapiens, UniProt P42336).
T2 construct: His (N); host or cells: SF9 insect cells (baculovirus)
Nature of the assay: Human PI3K alpha enzyme assay (HTRF). Particulars: concentration not given, b1387 states 1.1 μM for PI3K α and β; for inhibition at 1.1 µM: read-out: p110 alpha Percent Inhibition.

The target in assay [3] is T3, Human PI3K gamma (Homo sapiens, UniProt P48736).
T3 construct: His (N); host or cells: SF9 insect cells (baculovirus)
Nature of the assay: Human PI3K gamma enzyme assay (HTRF). Particulars: concentration not given, b1389 states 1.0 μM for PI3K δ and γ; for inhibition at 1 µM: read-out: p110 gamma Percent Inhibition. The procedure, abridged: as §1

Assay [4] concerns the target T4, Human PI3K delta (Homo sapiens, UniProt O00329).
T4 construct: His (N); host or cells: SF9 insect cells (baculovirus)
The assay is described as follows: Human PI3K delta enzyme assay (HTRF). Particulars: concentration not given, b1389 states 1.0 μM for PI3K δ and γ; for inhibition at 1 µM: read-out: p110 delta Percent Inhibition. The gist of the method:
as §1

Each structure is given as a SMILES string.

We go through 12 compounds from patent publication US8796268B2, “Heteroaryls and uses thereof” (Millennium Pharmaceuticals, Inc., priority 2010, dated 2014).

T4 sequence (O00329 whole entry): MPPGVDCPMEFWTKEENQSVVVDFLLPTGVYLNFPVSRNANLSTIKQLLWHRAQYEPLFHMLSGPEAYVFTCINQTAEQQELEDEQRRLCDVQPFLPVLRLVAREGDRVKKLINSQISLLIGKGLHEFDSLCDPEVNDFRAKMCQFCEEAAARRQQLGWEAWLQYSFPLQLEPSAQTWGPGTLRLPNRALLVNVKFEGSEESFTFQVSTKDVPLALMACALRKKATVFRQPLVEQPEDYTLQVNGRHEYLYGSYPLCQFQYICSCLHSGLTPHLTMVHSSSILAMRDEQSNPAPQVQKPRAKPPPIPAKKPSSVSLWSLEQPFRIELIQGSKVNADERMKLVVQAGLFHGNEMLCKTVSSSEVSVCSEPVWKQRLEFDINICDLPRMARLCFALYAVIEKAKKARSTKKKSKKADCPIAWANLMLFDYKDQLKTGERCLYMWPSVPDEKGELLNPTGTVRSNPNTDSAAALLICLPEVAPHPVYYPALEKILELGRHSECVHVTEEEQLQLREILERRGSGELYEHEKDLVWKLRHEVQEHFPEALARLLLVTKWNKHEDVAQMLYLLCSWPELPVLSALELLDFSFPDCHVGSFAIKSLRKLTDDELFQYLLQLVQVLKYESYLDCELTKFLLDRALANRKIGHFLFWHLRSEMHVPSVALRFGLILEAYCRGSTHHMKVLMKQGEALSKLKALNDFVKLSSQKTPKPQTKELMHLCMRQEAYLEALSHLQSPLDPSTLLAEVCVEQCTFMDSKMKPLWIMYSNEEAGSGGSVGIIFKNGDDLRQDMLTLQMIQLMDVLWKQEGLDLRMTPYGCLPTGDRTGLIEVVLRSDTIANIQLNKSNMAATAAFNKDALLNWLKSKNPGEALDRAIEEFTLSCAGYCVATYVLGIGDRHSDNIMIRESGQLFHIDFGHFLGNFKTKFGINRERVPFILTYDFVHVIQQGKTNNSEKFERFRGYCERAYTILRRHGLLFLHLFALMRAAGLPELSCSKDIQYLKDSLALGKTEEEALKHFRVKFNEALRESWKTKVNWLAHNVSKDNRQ
T4 sequence (P27986 whole entry partner): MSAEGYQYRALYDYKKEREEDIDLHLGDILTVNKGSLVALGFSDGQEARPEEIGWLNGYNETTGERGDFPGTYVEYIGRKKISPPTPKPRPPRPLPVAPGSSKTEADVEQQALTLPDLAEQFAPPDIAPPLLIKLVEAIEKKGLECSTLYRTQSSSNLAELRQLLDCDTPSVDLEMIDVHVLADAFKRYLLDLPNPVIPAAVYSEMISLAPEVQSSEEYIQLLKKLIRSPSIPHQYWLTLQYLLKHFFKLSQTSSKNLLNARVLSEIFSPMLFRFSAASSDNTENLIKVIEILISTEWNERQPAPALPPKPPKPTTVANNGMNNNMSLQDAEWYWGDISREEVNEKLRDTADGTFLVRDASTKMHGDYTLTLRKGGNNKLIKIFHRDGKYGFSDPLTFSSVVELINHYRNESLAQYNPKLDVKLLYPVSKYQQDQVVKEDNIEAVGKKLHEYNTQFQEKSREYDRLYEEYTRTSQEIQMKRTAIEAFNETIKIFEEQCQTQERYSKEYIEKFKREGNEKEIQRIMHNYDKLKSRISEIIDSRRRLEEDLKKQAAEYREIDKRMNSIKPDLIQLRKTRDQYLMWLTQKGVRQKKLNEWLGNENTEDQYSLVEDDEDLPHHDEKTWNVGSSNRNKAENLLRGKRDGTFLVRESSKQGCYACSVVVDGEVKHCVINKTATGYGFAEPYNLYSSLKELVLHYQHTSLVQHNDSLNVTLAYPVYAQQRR
T1 sequence (P42338 whole entry): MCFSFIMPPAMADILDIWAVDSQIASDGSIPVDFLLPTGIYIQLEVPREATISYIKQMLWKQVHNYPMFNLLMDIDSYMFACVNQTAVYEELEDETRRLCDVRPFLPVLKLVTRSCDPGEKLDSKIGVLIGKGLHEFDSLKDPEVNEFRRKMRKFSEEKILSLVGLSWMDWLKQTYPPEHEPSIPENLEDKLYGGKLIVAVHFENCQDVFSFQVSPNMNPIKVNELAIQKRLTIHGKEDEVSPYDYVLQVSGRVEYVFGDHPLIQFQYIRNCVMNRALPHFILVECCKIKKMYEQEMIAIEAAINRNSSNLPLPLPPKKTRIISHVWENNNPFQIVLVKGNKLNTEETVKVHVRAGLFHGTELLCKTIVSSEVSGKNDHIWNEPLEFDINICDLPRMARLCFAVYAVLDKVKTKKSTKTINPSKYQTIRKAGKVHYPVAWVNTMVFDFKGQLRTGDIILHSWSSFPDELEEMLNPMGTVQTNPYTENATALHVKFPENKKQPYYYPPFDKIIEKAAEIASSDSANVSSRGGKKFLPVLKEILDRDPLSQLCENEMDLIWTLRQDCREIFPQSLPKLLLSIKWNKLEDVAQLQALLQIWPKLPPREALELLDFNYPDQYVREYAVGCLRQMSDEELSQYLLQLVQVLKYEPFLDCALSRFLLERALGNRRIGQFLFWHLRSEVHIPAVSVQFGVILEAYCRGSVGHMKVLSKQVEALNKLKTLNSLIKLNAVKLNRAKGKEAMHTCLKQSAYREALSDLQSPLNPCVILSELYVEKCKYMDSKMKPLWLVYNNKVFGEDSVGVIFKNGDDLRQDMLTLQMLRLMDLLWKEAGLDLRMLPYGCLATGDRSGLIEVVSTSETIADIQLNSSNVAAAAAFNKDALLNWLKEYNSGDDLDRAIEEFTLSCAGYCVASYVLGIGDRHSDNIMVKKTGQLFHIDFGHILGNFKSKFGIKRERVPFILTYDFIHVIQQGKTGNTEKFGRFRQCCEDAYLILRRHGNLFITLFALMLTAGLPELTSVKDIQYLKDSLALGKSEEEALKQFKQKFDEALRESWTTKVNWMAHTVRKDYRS
T1 sequence (P27986 whole entry partner): as the sequence (P27986 whole entry partner) above
T2 sequence (P42336 whole entry): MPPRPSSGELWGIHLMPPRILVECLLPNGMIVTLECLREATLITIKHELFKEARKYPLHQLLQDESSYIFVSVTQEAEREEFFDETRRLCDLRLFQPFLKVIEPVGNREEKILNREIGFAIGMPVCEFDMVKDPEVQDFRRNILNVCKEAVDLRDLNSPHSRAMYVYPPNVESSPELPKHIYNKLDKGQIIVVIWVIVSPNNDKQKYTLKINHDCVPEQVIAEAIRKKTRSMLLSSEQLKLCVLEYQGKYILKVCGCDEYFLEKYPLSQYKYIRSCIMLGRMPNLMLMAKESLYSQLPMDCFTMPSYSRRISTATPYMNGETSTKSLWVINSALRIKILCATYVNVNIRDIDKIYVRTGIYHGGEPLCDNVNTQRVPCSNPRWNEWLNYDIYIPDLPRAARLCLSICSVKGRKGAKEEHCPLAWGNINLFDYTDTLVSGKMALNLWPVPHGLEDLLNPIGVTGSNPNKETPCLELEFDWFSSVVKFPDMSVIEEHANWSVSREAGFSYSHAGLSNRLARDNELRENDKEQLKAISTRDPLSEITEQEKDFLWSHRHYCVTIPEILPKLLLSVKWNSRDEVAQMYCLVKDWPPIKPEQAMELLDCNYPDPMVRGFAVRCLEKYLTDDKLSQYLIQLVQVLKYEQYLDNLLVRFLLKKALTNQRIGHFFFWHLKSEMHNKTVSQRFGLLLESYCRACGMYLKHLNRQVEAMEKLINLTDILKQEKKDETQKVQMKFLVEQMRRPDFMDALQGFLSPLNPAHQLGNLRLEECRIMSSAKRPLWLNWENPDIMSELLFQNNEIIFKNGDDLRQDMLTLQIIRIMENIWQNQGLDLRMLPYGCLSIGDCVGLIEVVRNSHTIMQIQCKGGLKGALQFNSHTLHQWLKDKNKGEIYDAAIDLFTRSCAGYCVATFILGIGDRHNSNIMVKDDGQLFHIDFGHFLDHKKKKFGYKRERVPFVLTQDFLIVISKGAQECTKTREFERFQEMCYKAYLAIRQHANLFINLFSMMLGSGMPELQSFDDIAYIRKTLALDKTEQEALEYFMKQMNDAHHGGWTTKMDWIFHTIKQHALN
T2 sequence (P27986 whole entry partner): as the sequence (P27986 whole entry partner) above
T3 sequence (P48736 whole entry): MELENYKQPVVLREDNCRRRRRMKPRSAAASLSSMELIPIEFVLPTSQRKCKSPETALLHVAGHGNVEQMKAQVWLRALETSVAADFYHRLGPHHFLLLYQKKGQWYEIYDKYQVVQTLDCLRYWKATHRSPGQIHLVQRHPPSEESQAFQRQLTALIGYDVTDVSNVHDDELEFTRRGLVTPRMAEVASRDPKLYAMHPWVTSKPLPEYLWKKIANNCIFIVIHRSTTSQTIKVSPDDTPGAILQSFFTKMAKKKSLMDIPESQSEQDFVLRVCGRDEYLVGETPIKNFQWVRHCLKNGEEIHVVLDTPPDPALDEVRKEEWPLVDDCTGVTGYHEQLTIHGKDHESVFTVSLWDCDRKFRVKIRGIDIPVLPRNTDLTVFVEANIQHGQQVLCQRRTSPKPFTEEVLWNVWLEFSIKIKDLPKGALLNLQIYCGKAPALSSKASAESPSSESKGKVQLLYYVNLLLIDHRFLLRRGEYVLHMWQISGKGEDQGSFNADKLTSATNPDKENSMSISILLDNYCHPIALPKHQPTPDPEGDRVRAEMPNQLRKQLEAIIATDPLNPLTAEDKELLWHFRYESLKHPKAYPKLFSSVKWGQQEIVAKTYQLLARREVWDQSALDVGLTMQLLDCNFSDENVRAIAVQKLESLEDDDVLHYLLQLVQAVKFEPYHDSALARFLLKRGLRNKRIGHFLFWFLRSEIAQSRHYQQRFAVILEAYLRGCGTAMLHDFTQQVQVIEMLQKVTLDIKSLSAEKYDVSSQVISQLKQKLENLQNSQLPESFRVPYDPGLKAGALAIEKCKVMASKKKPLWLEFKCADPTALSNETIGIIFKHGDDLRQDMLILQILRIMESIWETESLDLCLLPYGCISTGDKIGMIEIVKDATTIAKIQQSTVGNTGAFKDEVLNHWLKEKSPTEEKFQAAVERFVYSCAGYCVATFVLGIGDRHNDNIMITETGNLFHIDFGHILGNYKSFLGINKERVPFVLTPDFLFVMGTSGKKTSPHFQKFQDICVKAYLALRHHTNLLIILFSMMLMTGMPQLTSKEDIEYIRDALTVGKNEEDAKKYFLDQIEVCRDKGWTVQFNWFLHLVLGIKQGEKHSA

In the case of `CC(=O)Nc1cc(-c2cc(C(OCC3CCCC3)c3ccc(Cl)cc3)c(-c3nnc[nH]3)s2)ccn1` (stereo not drawn) [Compound 173], the figures for the inhibition at 1.1 µM in assay [1] and in assay [2] were 67% and 69%, respectively. Besides, the values for the inhibition at 1 µM in assay [3] and in assay [4] were 3% and 83%, respectively.
The like results for `CC(=O)NC(c1ccc(Cl)cc1)c1c(C(=O)O)sc(N2CCOCC2)c1C#N` (stereo not drawn) [Compound 353] were, in that order, 87%, 19%, 15% and 80%.
In the case of `Cc1ccc(F)c(C(O)c2cc(-c3ccncc3)sc2-c2nnc[nH]2)c1` (stereo not drawn) [Compound 188], the inhibition at 1.1 µM amounted to 94% in assay [1] and 47% in assay [2]. For the same compound, the inhibition at 1 µM in assay [3] is 36%; in assay [4] it was 82%.
The matching figures for `CC(=O)Nc1cc(-c2cc([C@H](c3ccc(Cl)cc3)N3CCC3)c(-c3nnc[nH]3)s2)ccn1` (single isomer, unassigned) [Compound 241]: 107%, 59%, 27% and 104%.
Turning to `Clc1ccc(Cc2nc(-c3ccncc3)sc2-c2nnn[nH]2)cc1` [Compound 190, 4-(4-chlorobenzyl)-2-(pyridin-4-yl)-5-(1H-tetrazol-5-yl)thiazole], the inhibition at 1.1 µM in assay [1] came to 60%; in assay [2] it was 3%. The inhibition at 1 µM in assay [3] worked out at 7%; in assay [4], 33%.
In the case of `OC(c1ccccc1C(F)(F)F)c1cc(-c2ccncc2)sc1-c1nnc[nH]1` (stereo not drawn) [Compound 193], the inhibition at 1.1 µM in assay [1] was determined as 69%; in assay [2] it was 26%. Further, the inhibition at 1 µM came out at 13% in assay [3] and 46% in assay [4].
Take `NCc1c[nH]c(-c2sc(-c3ccncc3)nc2Cc2ccc(Cl)cc2)n1` [Compound 255, (2-(4-(4-chlorobenzyl)-2-(pyridin-4-yl)thiazol-5-yl)-1H-imidazol-4-yl)methanamine]: in assay [1], the “p110 beta Percent Inhibition” value came to 55%. In assay [2], the “p110 alpha Percent Inhibition” value came out at 0%. Moreover, the “p110 gamma Percent Inhibition” value in assay [3] was 5%. Moreover, in assay [4], the “p110 delta Percent Inhibition” value stood at 39%.
Consider `OC(c1ccc(C(F)(F)F)cc1)c1cc(-c2ccncc2)sc1-c1nnc[nH]1` (stereo not drawn) [Compound 142], for which the inhibition at 1.1 µM was found to be 67% in assay [1] and 15% in assay [2]. The inhibition at 1 µM in assay [3] amounted to 7%; in assay [4], 47%.
With `CC(=O)Nc1cc(-c2cc(C(OC[C@@H]3CCCN3)c3ccc(Cl)cc3)c(-c3nnc[nH]3)s2)ccn1` (stereo partly drawn) [Compound 242], the inhibition at 1.1 µM in assay [1] is 104%; in assay [2] it was 81%. In addition, the inhibition at 1 µM was 36% in assay [3] and 112% in assay [4].
The like results for `N#Cc1c(N2CCOCC2)sc(C(=O)O)c1C(CCO)c1ccc(Cl)c(Cl)c1` (stereo not drawn) [Compound 347, 4-cyano-3-[1-(3,4-dichlorophenyl)-3-hydroxypropyl]-5-(morpholin-4-yl)thiophene-2-carboxylic acid] were, in that order, 102%, 71%, 60% and 111%.
Turning to `CC(=O)Nc1cc(-c2nc(Cc3ccc4ccccc4c3)c(C(=O)O)s2)ccn1` [Compound 177, 2-(2-acetamidopyridin-4-yl)-4-(naphthalen-2-ylmethyl)thiazole-5-carboxylic acid], the inhibition at 1.1 µM stood at 100% in assay [1] and 79% in assay [2]. Moreover, the inhibition at 1 µM was 34% in assay [3] and 106% in assay [4].
The matching figures for `CC(=O)Nc1cc(-c2cc(C(c3ccc(Cl)cc3)N3CCN(CC(F)(F)F)CC3)c(-c3nnc[nH]3)s2)ccn1` (stereo not drawn) [Compound 157]: 68%, 55%, 7% and 101%.
